target: T1, hRORγt (Homo sapiens, UniProt P51449); experiment: Luciferase assay (reporter gene, recombinant plasmid hRORγt); assay type: cell-based; settings: CHO-S cells transfected with pM-hRORγt and pG5-luc; overnight culture with compound; ONE-Glo luciferase readout; read-out: RORgt EC50
T1 construct: expressed in transfected cells; host or cells: CHO-S (Chinese hamster ovary cells, Invitrogen R80007), transiently transfected with pM-hRORγt and pG5-luc
T1 sequence (P51449 1-497 isoform P51449-2): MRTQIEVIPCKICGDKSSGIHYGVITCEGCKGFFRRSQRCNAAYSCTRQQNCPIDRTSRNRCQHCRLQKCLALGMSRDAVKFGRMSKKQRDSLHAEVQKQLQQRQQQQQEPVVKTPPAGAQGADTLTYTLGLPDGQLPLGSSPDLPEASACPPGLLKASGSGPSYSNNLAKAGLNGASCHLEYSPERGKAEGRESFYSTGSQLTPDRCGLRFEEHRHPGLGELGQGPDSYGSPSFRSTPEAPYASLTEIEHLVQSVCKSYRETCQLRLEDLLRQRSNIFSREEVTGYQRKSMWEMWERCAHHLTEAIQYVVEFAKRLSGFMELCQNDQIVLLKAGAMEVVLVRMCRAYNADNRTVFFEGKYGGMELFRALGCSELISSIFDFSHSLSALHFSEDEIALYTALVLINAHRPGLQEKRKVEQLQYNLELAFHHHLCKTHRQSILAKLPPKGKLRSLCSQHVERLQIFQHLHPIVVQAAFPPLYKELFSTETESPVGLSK
From the text: This assay method used luciferase as a reporter gene to detect the expression of cells transfected with a gene recombinant plasmid at gene transcription level, wherein the recombinant plasmid was constructed by the promoter of a target gene and a luciferase gene. The experiment was primarily related to the transfection of the recombinant plasmid hRORγt (“RORgt”).
I. Reagents and Materials:
1. Cells: Chinese hamster ovary cells (CHO—S, Invitrogen, Cat #R80007), suspension-cultured in CD-CHO culture medium containing 8 mM L-glutamine and 1×HT.
a) Luciferase reporter gene plasmid pG5-luc: reporter plasmid (Promega).
b) Target gene plasmid pM-hRORγt: human RORgamma.
4. Transfection reagent: TransIT-CHO transfection kit (Minis Bio Co.) containing Trans-It reagent and Mojo reagent (Minis, MIR2170).
7. Luciferase kit: (Promega ONE-Glo, 100 ml, Catalog #E6120): containing luciferase substrate (Coenzyme A, ATP and luciferin) and a reaction buffer.
II. Specific Experimental Steps
1. Cell seeding: 18 to 24 h before transfection, a 125 mL shake flask was charged with CHO—S cells having a concentration of 0.5×10^6 cells/mL to 0.6×10^6 cells/mL, and CD-CHO culture medium (the culture medium only contained L-glutamine and an HT supplement) was added thereto to a final volume of 18 mL. The shake flask was placed on a shaker, and the cells were passaged overnight under a condition of 120 rpm, 37° C. and 8% CO2.
2. Cell transfection: At this time, the cell concentration of the above-mentioned solution should be 1.2×10^6 cells/mL to 1.5×10^6 cells/mL. CD-CHO culture medium (containing L-glutamine and an HT supplement) was used for dilution until the cell concentration reached 1×10^6 cells/mL.
B. Preparation of transfection reagent (TransIT-CHO: Mojo: DNA complex), which was formulated immediately before transfection.
1. Trans-IT reagent was warmed to room temperature in advance and shaken to be uniformly mixed before use.
2. Preparation for DNA transfection: the following reagents were mixed in a 1.5 mL sterile centrifuge tube:
27 μg of luciferase reporter gene plasmid pG5-luc: 27 μL, 1 mg/mL solution,
0.75 μg of the expression plasmid of the target gene (pM-hRORγt, 7.5 μL, 0.1 mg/mL solution).
3. The following reagents were charged into a 15 mL sterile centrifuge tube:
83 μL of TransIT-CHO reagent
the DNA complex prepared in step 2
4. The mixture was mixed well and placed at room temperature for 5 min.
5. 13.9 μL of Mojo reagent was charged into a sterile centrifuge tube, mixed slightly, and placed at room temperature for 20 min to form a transfection complex.
1. A 125 mL shake flask was charged with the transfection complex prepared in step B dropwise while being shaken slowly.
2. The cells were cultured for 4 h in a shaker under a condition of 37° C. and 8% carbon dioxide.
3. After 4 h, the cells were transferred to a 50 mL sterile centrifuge tube, centrifuged at 1200 rpm for 4 min, and the supernatant was aspirated.
4. The cells were re-suspended in 6 mL of a freezing medium (CD-CHO, L-glutamine, HT supplement, and 10% DMSO), and the cell density should be 3×10^6 cells/ml at this time.
5. The mixture was dispensed into 12 tubes with 0.5 mL in each tube. The tubes were placed in a refrigerator at −80° C. to be slowly frozen overnight, and then were transferred into liquid nitrogen for long-term storage.
D. Luciferase activity assay (96-well flat plate)
1. The cells were thawed at 37° C.
2. The cells (1.5×10^6 cells/0.5 mL) were diluted with 2 mL of freshly formulated culture medium (CD-CHO, L-glutamine and an HT supplement) to a volume of 2.5 mL, and then were transferred to a 15 mL sterile centrifuge tube.
3. Cell counting: If the cells were completely viable, a concentration of 6×10^5 cells/mL should be achieved. […] If necessary, the cells were diluted with culture medium.
4. Cell seeding: 100 μl cells (4×10^4 cells) were added to each well.

Structure (SMILES) | EC50 [pM]
CCc1ccc2c(c1)CC[C@H](CC)N2S(=O)(=O)c1ccc(OCC2CCOCC2)c(CO)c1 | 34900
CCc1ccc2c(c1)CCC(CC)N2S(=O)(=O)c1ccc(OCC2CCOCC2)c(CO)n1 (centres unmarked) | 212000
CCc1ccc2c(c1)CC[C@H](C)N2S(=O)(=O)c1ccc(OCC2CCOCC2)c(CO)c1 | 25000
CCc1ccc2c(c1)CCC(CC)N2S(=O)(=O)c1ccc(OCC2CCOCC2)c(S(C)(=O)=O)c1 (centres unmarked) | 1.86e+06
CCc1ccc2c(c1)CCCN2S(=O)(=O)c1ccc(OCC2CCOCC2)c(CO)c1 | 858000
CCc1ccc2c(c1)CCC(CC)N2S(=O)(=O)c1ccc(C(CO)N2CCOCC2)c(CO)c1 (centres unmarked) | 3.12e+06
C[C@H]1CCc2cc(CC(F)(F)F)ccc2N1S(=O)(=O)c1ccc(OCC2CCOCC2)c(CO)c1 | 316000
CC1CCc2cc(C#N)ccc2N1S(=O)(=O)c1ccc(OCC2CCOCC2)c(CO)c1 (centres unmarked) | 689000
CCc1ccc2c(c1)CCC(CC)N2S(=O)(=O)c1ccc(OCC2CCS(=O)(=O)CC2)c(CO)c1 (centres unmarked) | 146000
CCc1ccc2c(c1)CC(C)N2S(=O)(=O)c1ccc(OCC2CCOCC2)c(CO)c1 (centres unmarked) | 1.61e+06
CCc1ccc2c(c1)CC(CC)CN2S(=O)(=O)c1ccc(OCC2CCOCC2)c(CO)c1 (centres unmarked) | 31600
CC1CCc2cc(C3CC3)ccc2N1S(=O)(=O)c1ccc(OCC2CCOCC2)c(CO)c1 (centres unmarked) | 20700
Cc1cc(C)c2c(c1)CCC(C1CC1)N2S(=O)(=O)c1ccc(OCC2CCOCC2)c(CO)c1 (centres unmarked) | 18000
C=C(C)c1ccc2c(c1)CCC(CC)N2S(=O)(=O)c1ccc(OCC2CCOCC2)c(CO)c1 (centres unmarked) | 12000
CC[C@@H]1CCc2cc(C(C)C)ccc2N1S(=O)(=O)c1ccc(OCC2CCOCC2)c(CO)c1 | 48000
CC[C@@H]1CCc2cc(C(C)(F)F)ccc2N1S(=O)(=O)c1ccc(OCC2CCOCC2)c(CO)c1 | 10000
CCc1ccc2c(c1)CC(C)CN2S(=O)(=O)c1ccc(OCC2CCOCC2)c(CO)c1 (centres unmarked) | 36000
CCc1cc(F)c2c(c1)CC[C@H](C)N2S(=O)(=O)c1ccc(OCC2CCOCC2)c(CO)c1 | 151000
CCc1ccc2c(c1)CCC(C1CC1)N2S(=O)(=O)c1ccc(OCC2CCOCC2)c(CO)c1 (centres unmarked) | 7000
CCc1ccc2c(c1)CC[C@@H](CC)N2S(=O)(=O)c1ccc(OCC2CCOCC2)c(CO)c1 | 4200
[2H]C([2H])(O)c1cc(S(=O)(=O)N2c3ccc(C(C)C)cc3CCC2CC)ccc1OCC1CCOCC1 (centres unmarked) | 11500
CCc1ccc2c(c1)CCC(CC(C)C)N2S(=O)(=O)c1ccc(OCC2CCOCC2)c(CO)c1 (centres unmarked) | 21000
CCC1CCc2cc(C(C)(C)O)ccc2N1S(=O)(=O)c1ccc(OCC2CCOCC2)c(CO)c1 (centres unmarked) | 1.4e+06
CCc1ccc2c(c1)C[C@@H](O)[C@H](C)N2S(=O)(=O)c1ccc(OCC2CCOCC2)c(CO)c1 | 803000
CCC1CCc2cc(C(C)(C)C)ccc2N1S(=O)(=O)c1ccc(OCC2CCOCC2)c(CO)c1 (centres unmarked) | 70200
CCC1CCc2cc(CC(F)(F)F)ccc2N1S(=O)(=O)c1ccc(OCC2CCOCC2)c(CO)c1 (centres unmarked) | 23000
CCc1ccc2c(c1)CCC(CC)N2S(=O)(=O)c1ccc(C(O)CC2CCOCC2)c(CO)c1 (centres unmarked) | 201000

Structure (SMILES) | EC50 [pM]
CCc1ccc2c(c1)C(C)CN2S(=O)(=O)c1ccc(OCC2CCOCC2)c(CO)c1 (centres unmarked) | 1.4e+06
CCC1CCc2cc(C(C)C)ccc2N1S(=O)(=O)c1ccc(OCC2CCOCC2)c(CO)c1 (centres unmarked) | 3500
CC[C@H]1CCc2cc(C(F)(F)F)ccc2N1S(=O)(=O)c1ccc(OCC2CCOCC2)c(CO)c1 | 71000
CCC1CCc2cc(C(C)(F)F)ccc2N1S(=O)(=O)c1ccc(OCC2CCOCC2)c(CO)c1 (centres unmarked) | 15600
CCc1ccc2c(c1)CCC(C(C)C)N2S(=O)(=O)c1ccc(OCC2CCOCC2)c(CO)c1 (centres unmarked) | 12400
CCc1ccc2c(c1)N(S(=O)(=O)c1ccc(OCC3CCOCC3)c(CO)c1)[C@@H](C)CC2 | 223000
CC(C)c1ccc2c(c1)CCC(C)N2S(=O)(=O)c1ccc(OCC2CCOCC2)c(CO)c1 (centres unmarked) | 14900
CC[C@@H]1CCc2cc(C(F)(F)F)ccc2N1S(=O)(=O)c1ccc(OCC2CCOCC2)c(CO)c1 | 5400
CCc1ccc2c(c1)CCC(C)N2S(=O)(=O)c1ccc(OCC2CCOCC2)c(CO)c1 (centres unmarked) | 23600
C=Cc1ccc2c(c1)CCC(CC)N2S(=O)(=O)c1ccc(OCC2CCOCC2)c(CO)c1 (centres unmarked) | 35500
C[C@H]1CCc2ccc(C(F)(F)F)cc2N1S(=O)(=O)c1ccc(OCC2CCOCC2)c(CO)c1 | 330000
CCc1ccc2c(c1)CCN2S(=O)(=O)c1ccc(OCC2CCOCC2)c(CO)c1 | 2.63e+06
CCc1ccc2c(c1)CCC(CC)N2S(=O)(=O)c1ccc(C(O)CN2CCOCC2)c(CO)c1 (centres unmarked) | 595000
CCc1ccc2c(c1)CCC(CC)N2S(=O)(=O)c1ccc(OCC2CCOCC2)c(CO)c1 (centres unmarked) | 11000
CCc1cc2c(cc1F)N(S(=O)(=O)c1ccc(OCC3CCOCC3)c(CO)c1)[C@@H](C)CC2 | 96500
CCc1ccc2c(c1)CCC(C)(C)N2S(=O)(=O)c1ccc(OCC2CCOCC2)c(CO)c1 | 310000
CCC1CCc2cc(C(F)(F)F)ccc2N1S(=O)(=O)c1ccc(OCC2CCOCC2)c(CO)c1 (centres unmarked) | 21100
CC1CCc2cc(C(F)(F)F)ccc2N1S(=O)(=O)c1ccc(OCC2CCOCC2)c(CO)c1 (centres unmarked) | 15000
CCCc1ccc2c(c1)CCC(C)N2S(=O)(=O)c1ccc(OCC2CCOCC2)c(CO)c1 (centres unmarked) | 17900
CCc1ccc2c(c1)C(C)CCN2S(=O)(=O)c1ccc(OCC2CCOCC2)c(CO)c1 (centres unmarked) | 655000
CCC1CCc2cc(C3CCC3)ccc2N1S(=O)(=O)c1ccc(OCC2CCOCC2)c(CO)c1 (centres unmarked) | 5500
CC(C)c1ccc2c(c1)CCC(C1CC1)N2S(=O)(=O)c1ccc(OCC2CCOCC2)c(CO)c1 (centres unmarked) | 6600
CCc1ccc2c(c1)CC[C@@H](C1CC1)N2S(=O)(=O)c1ccc(OCC2CCOCC2)c(CO)c1 | 3200
CCc1ccc2c(c1)CC[C@@H](C)N2S(=O)(=O)c1ccc(OCC2CCOCC2)c(CO)c1 | 218000
C[C@H]1CCc2cc(C(C)(F)F)ccc2N1S(=O)(=O)c1ccc(OCC2CCOCC2)c(CO)c1 | 181000
CCc1ccc2c(c1)CCC(C1CCC1)N2S(=O)(=O)c1ccc(OCC2CCOCC2)c(CO)c1 (centres unmarked) | 8100
